In this experiment the target is T1, WaaC (Escherichia coli, UniProt P24173).
T1 construct: made in house; host or cells: E. coli BL21 double mutant with the heptosyltransferase I and II genes deleted
The experiment can be described thus: WaaC IC50 fluorimetric in vitro heptosyltransferase assay (NADH fluorescence, pyruvate kinase/lactate dehydrogenase coupled). The settings on record: inhibitory activity on Waac enzymatic activity; 1nM purified WaaC, 3µM Re-LPS, pH 7.0. The experiment is classed as biochemical. The procedure:
A fluorimetric in vitro assay was set up to quantify the enzymatic activity of purified heptosyl transferase.Said fluorimetic assay is used to identify inhibitors and for measuring IC50 determinations.
WaaC IC50 assays are performed in black 96-well plates (Wallac) in a final volume of 100µL at pH 7.0 comprising: the inhibitor studied dissolved in 2µL DMSO at 10 different concentrations, 50mM HEPES, 10mM MgCl2, 50mM KCl, 0.1% Triton-), 3µM Re-LPS (Sigma, purified from Salmonella Minnesota), 1nM of purified WaaC, 5u/mL Pyruvate kinase (Sigma), 50µM Phosphoenolpyruvate (Sigma), 5u/mL Lactate dehydrogenase (Sigma) and 1.5µM NADH (Sigma). Fluorescence intensity of NADH (λex= 360nm, λem=520nm) is read once before enzyme addition (background), and is followed kinetically afterwards. Initial velocities are determined from the linear phase after background substraction. IC50 curves are fitted to a classical sigmoidal model with Hill slope.

T1 sequence (P24173 whole entry): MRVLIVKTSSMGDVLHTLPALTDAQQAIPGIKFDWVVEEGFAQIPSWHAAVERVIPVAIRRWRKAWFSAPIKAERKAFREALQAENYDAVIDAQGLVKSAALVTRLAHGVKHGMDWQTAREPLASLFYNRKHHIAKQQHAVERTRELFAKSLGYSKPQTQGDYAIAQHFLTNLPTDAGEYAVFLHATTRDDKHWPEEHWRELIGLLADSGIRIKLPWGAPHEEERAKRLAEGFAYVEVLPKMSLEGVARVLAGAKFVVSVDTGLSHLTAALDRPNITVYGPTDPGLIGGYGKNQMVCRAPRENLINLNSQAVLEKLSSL

As a reminder, the IC50 is the concentration that inhibits the measured activity by half. High values mean weaker potency in that assay, low ones greater potency in that assay. As to “Adenosine 5'-diphospho-2-Deoxy-2-fluoro-6-L-glycero-β-D-heptoglucopyranoside”, the IC50 came out at 57 µM.
